How the values were obtained:
Assay type in all cases: in vivo
[1] = system: dogs suffering from cognitive dysfunction syndrome; assay: Example 2: cognitive decline, Cognitive Dysfunction Screening Checklist; conditions: for Average Initial Score: day 0 (before treatment); for Average Final Score: day 60, BID
Excerpt: (§1) This example examines the ability of embodiments of the invention versus Anipryl® to treat cognitive decline.
The patient group is twenty dogs suffering from cognitive dysfunction syndrome, as determined by the Cognitive Dysfunction Screening Checklist. See G. Landsberg et al., 2003 HANDBOOK OF BEHAVIOR PROBLEMS OF THE DOG AND CAT (Elsevier Science Limited) (2003). The twenty dogs are broken into five groups of four dogs. The first group receives Anipryl® as the sole active agent; the second group receives a composition comprising HMW HA as the sole active agent; the third group receives a composition comprising CBD as the sole active agent; the fourth group receives a composition comprising HMW HA and CBD as the active agents; and the fifth group receives a composition comprising HMW HA, CBD, nicotinamide adenine dinucleotide (“NAD”), and phosphatidylserine as the active agents.
(§2) Each composition is administered for a period of sixty (60) days, twice per day (“BID”). The owner completes the Checklist on days 0 (“Initial Score”), 15, 30, 45, and 60 (“Final Score”) of treatment.
Each group is evaluated and Checklist scores averaged. The following scores are observed and the results depicted in FIG. 2: […]

[2] = system: dogs suffering from heart failure; assay: Example 7: heart failure in dogs; conditions: heart failure scale 1 (few to no clinical signs) to 10 (severe); for Initial Score: day 0; for Final Score: day 90, BID
Excerpt: This example examines the ability of embodiments of the invention versus enalapril to treat heart failure.
The patient group is twenty-four dogs suffering from heart failure.
The patient group is broken into six groups of four dogs. The first group receives enalapril as the sole active agent; the second group receives a composition comprising enalapril and Lasix®; the third group receives a composition comprising HMW HA as the sole active agent; the fourth group receives a composition comprising CBD as the sole active agent; the fifth group receives a composition comprising HMW HA and CBD as the active agents; and the sixth group receives a composition comprising HMW HA, CBD, liposomal CoQ10, hawthorn berry, and ginko biloba as the active agents.
Each composition is administered for a period of ninety (90) days, BID. Each animal is evaluated on days 0 (“Initial Score”), 30, 60, and 90 (“Final Score”) of treatment. The results are averaged and characterized on a scale of 1 (few to no clinical signs of heart failure) to 10 (severe heart failure).
The following canine scores are observed and the results depicted in FIG. 7: […]

[3] = system: dogs suffering from cognitive dysfunction syndrome; assay: Example 10: cognitive decline, Cognitive Dysfunction Screening Checklist (CBD Complex); conditions: for Average Initial Score: day 0 (before treatment); for Average Final Score: day 60, BID
Excerpt: as §1
The patient group is twenty dogs suffering from cognitive dysfunction syndrome, as determined by the Cognitive Dysfunction Screening Checklist. See G. Landsberg et al., 2003 HANDBOOK OF BEHAVIOR PROBLEMS OF THE DOG AND CAT (Elsevier Science Limited) (2003). The twenty dogs are broken into five groups of four dogs. The first group receives Anipryl® as the sole active agent; the second group receives a composition comprising HMW HA as the sole active agent; the third group receives a composition comprising CBD as the sole active agent; the fourth group receives a composition comprising HMW HA and CBD Complex as the active agents; and the fifth group receives a composition comprising HMW HA, CBD Complex, nicotinamide adenine dinucleotide (“NAD”), and phosphatidylserine as the active agents.
as §2
Each group is evaluated and Checklist scores averaged. The following scores are observed and the results depicted in FIG. 10: […]

[4] = system: dogs suffering behavior aberrations and/or anxiety; assay: Example 13: behavior aberrations and anxiety, C-BARQ (canine, CBD Complex); conditions: C-BARQ day 0 vs 60, SID, 0 (no improvement) to 3 (marked improvement)
Excerpt: (§3) This example examines the ability of embodiments of the invention versus Clomicalm® to reduce behavior aberrations and anxiety.
(§4) The first patient group is twenty dogs suffering behavior aberrations and/or anxiety, as determined by the canine behavioral assessment and research questionnaire (“C-BARQ”). […] The second patient group is twenty cats suffering behavior aberrations and/or anxiety, as determined by the feline behavioral assessment and research questionnaire (“Fe-BARQ”).
(§5) Each group is broken into five groups of four animals. The first group receives Clomicalm® as the sole active agent; the second group receives a composition comprising HMW HA as the sole active agent; the third group receives a composition comprising CBD as the sole active agent; the fourth group receives a composition comprising HMW HA and CBD Complex as the active agents; and the fifth group receives a composition comprising HMW HA, CBD Complex, valerian root, and scutillaria as the active agents.
(§6) Each composition is administered for a period of sixty (60) days, once a day (“SID”). Owners complete the species-appropriate C-BARQ or Fe-BARQ on days 0 and 60 of treatment. The results from the overall questionnaire are averaged and characterized as no improvement (score of 0), mild improvement (score of 1), moderate improvement (score of 2), or marked improvement (score of 3).

[5] = system: cats suffering behavior aberrations and/or anxiety; assay: Example 13: behavior aberrations and anxiety, Fe-BARQ (feline, CBD Complex); conditions: Fe-BARQ day 0 vs 60, SID, 0 (no improvement) to 3 (marked improvement)
Excerpt: as §3, §4, §5, §6

[6] = system: dogs with a history of severe, chronic skin issues, atopy, pruritis, yeast overgrowth, and/or infection; assay: Example 16: skin conditions (itch score) and side effects in dogs (CBD Complex); conditions: for Average Side Effect Score: dogs with skin conditions, 60 days BID; for Initial Itch Score / Final Itch Score: itch scale 0 (no itching) to 10 (extremely severe); for Initial Itch Score: day 0; for Final Itch Score: day 60, BID
Excerpt: This example examines the ability of embodiments of the invention versus prednisone to treat skin conditions.
The patient group is twenty-four dogs with a history of severe, chronic skin issues, atopy, pruritis, yeast overgrowth, and/or infection, as diagnosed by their referring veterinarian. The patient group is broken into six groups of four animals. The first group receives prednisone as the sole active agent; the second group receives a composition comprising prednisone and HMW HA as the active agents; the third group receives a composition comprising HMW HA as the sole active agent; the fourth group receives a composition comprising CBD as the sole active agent; the fifth group receives a composition comprising HMW HA and CBD Complex as the active agents; and the sixth group receives a composition comprising HMW HA, CBD Complex, quercetin, and nettles as the active agents.
Each composition is administered for a period of sixty (60) days, BID. Each dog is evaluated on days 0 (“Initial Score”), 20, 40, and 60 (“Final Score”) of treatment. The results are averaged and characterized on a scale of 0 (no itching—normal dog), 2 (very mild itching—only occasional episodes), 4 (mild itching), 6 (moderate itching—regular episodes), 8 (severe itching—prolonged episodes), to 10 (extremely severe itching—almost continuous).

## C=C(C)[C@@H]1CCC(C)=C[C@H]1c1c(O)cc(CCCCC)cc1O [CBD Alone, 2-[(1R,6R)-3-methyl-6-prop-1-en-2-ylcyclohex-2-en-1-yl]-5-pentylbenzene-1,3-diol]
[1]
  Average Initial Score: 3
  Average Final Score: 1.5
[2]
  Initial Score: 8
  Final Score: 4
[3]
  Average Initial Score: 3
  Average Final Score: 1.5
[4]
  Improvement Score: 2
[5]
  Improvement Score: 1.8
[6]
  Average Side Effect Score: .5
  Initial Itch Score: 9
  Final Itch Score: 5

## hyaluronic acid [HMW HA Alone]
[1]
  Average Initial Score: 3
  Average Final Score: 2
[2]
  Initial Score: 8
  Final Score: 4
[3]
  Average Initial Score: 3
  Average Final Score: 2
[4]
  Improvement Score: 1
[5]
  Improvement Score: 1
[6]
  Average Side Effect Score: 4
  Initial Itch Score: 9
  Final Itch Score: 7

— patent US20220054532A1, “VETERINARY COMPOSITIONS AND METHODS OF USE THEREFOR” (priority 2019, published 2022)
